This is an account of results in PMC11992225, “Antibacterial compounds against non-growing and intracellular bacteria” (npj Antimicrobials and Resistance, 2025).

For one assay, the system named is E. coli CFT073 (UPEC). Kind of assay: MIC, standard microdilution assay, growing UPEC. The class given is cell-based, Escherichia coli. Particulars: Escherichia coli, E. coli. The method, boiled down: (§1)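 Broth microdilution was used throughout. UPEC, P. aeruginosa and S. aureus were tested in CA-MHB buffered with 40 mM HEPES (pH 7.4); UPEC was additionally tested in LPM with 30 mM MES (pH 5.5). S. flexneri was grown in TSB. All determinations were run in triplicate.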
In general terms: Broth dilution looks for growth in wells or tubes with falling amounts of substance.

The next assay concerns S. aureus DSM2569. Nature of the assay: MIC, standard microdilution assay, growing S. aureus. Type of assay: cell-based, Staphylococcus aureus. The note with it: Staphylococcus aureus, DSM2569; S. aureus; CA-MHB pH 7.4; read-out: MIC (μM) CA-MHB. The method, boiled down:
as §1

For a further assay, the system named is non-growing UPEC CFT073. Kind of assay: Dose-dependent killing analysis (CFU spot-plating) of stationary-phase UPEC. Type of assay: cell-based, Escherichia coli. The note with it: E. coli in 1:4 CA-MHB (pH 7.4); for log10(CFU/ml) after treatment: individual replicates; for log10(CFU/ml) of treated nongrowing bacteria (single replicates): before treatment 8.977. The method, boiled down: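 Killing assessed by CFU counts: overnight 37 °C LB agar spot plates (10 μl drops of 10-fold PBS dilutions) scored at the lowest dilution with distinct colonies. Samples were compound-treated non-growing UPEC CFT073, 200 μl per well. Performed as three biological replicates.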

Assay [1] has as its system intracellular S. flexneri 5a M90T in TC7 cells. Kind of assay: microbe, parasite or virus in culture. The class given is cell-based, Shigella flexneri. Particulars: for IC50: Shigella flexneri, TC7, 14 h; for Fluorescence intensity (RFU), Mean, 0.25 x MIC / Fluorescence intensity (RFU), Mean, 0.5 x MIC / Fluorescence intensity (RFU), Mean, 2 x MIC / Fluorescence intensity (RFU), Mean, 4 x MIC / Fluorescence intensity (RFU), Mean, 8 x MIC / Fluorescence intensity (RFU), Mean, 16 x MIC / Fluorescence intensity (RFU), Mean, 32 x MIC / Fluorescence intensity (RFU), Mean, MIC: TC7 cells infected with GFP-expressing S. flexneri, 14 h treatment.

Setting [2] is: pH 7.4, CA-MHB, read-out: MIC (μM) CA-MHB.

Structures are written as SMILES. Values after ≈ are worked out from the molar mass of the structure shown. Values joined by “and” are separate entries in the source; they are usually repeats but may differ in a detail not shown here. Equal values may be shown once. Read-outs that look alike come from different tables or passages of the source.

Broadly, the MIC is the least concentration at which growth counts as inhibited. Usually IC50 stands for the concentration that inhibits the measured activity by half. A lower IC50 goes with inhibition by little substance. Regarding `COc1c(N2C[C@@H]3CCCN[C@@H]3C2)c(F)cc2c(=O)c(C(=O)O)cn(C3CC3)c12` [Moxifloxacin], the MIC in the assay with E. coli CFT073 (UPEC) (setting [2]) stood at 0.125 µM (≈ 0.0502 µg/mL). The MIC with S. aureus DSM2569 came to 0.125 µM (≈ 0.0502 µg/mL). Besides, the “log10(CFU/ml) after treatment” value in the assay with non-growing UPEC CFT073 (concentration 0.25) is 8.602 log10(CFU/ml) and 8.380 log10(CFU/ml) and 8.255 log10(CFU/ml). In addition, the “log10(CFU/ml) after treatment” value with non-growing UPEC CFT073 (concentration 0.5) was 8.041 log10(CFU/ml) and 7.903 log10(CFU/ml) and 7.699 log10(CFU/ml). The “log10(CFU/ml) after treatment” value with non-growing UPEC CFT073 (concentration 1) was 7.415 log10(CFU/ml) and 6.845 log10(CFU/ml) and 6.903 log10(CFU/ml). The “log10(CFU/ml) after treatment” value in the assay with non-growing UPEC CFT073 (concentration 2.5) is 5.954 log10(CFU/ml) and 5.230 log10(CFU/ml) and 5.380 log10(CFU/ml). For the same molecule, the “log10(CFU/ml) after treatment” value with non-growing UPEC CFT073 (concentration 5) was 5.602 log10(CFU/ml) and 5.204 log10(CFU/ml) and 5.146 log10(CFU/ml). Also, the “log10(CFU/ml) after treatment” value with non-growing UPEC CFT073 (concentration 10) is 6.114 log10(CFU/ml) and 4.903 log10(CFU/ml) and 5.000 log10(CFU/ml). In assay [1], the midpoint of inhibition, the IC50, lay at 35 nM; the “Fluorescence intensity (RFU), Mean, 0.25 x MIC” value was 7400.12 RFU; the “Fluorescence intensity (RFU), Mean, 0.5 x MIC” value was determined as 5542.67 RFU; the “Fluorescence intensity (RFU), Mean, 2 x MIC” value came to 3672.56 RFU. For the same molecule, in assay [1], the “Fluorescence intensity (RFU), Mean, 4 x MIC” value is given as 2897.78 RFU; the “Fluorescence intensity (RFU), Mean, 8 x MIC” value is given as 2156.25 RFU; the “Fluorescence intensity (RFU), Mean, 16 x MIC” value is 1789.81 RFU; the “Fluorescence intensity (RFU), Mean, 32 x MIC” value is 1608.56 RFU. In addition, the “Fluorescence intensity (RFU), Mean, MIC” value in assay [1] was 3564.03 RFU.
On to `CC1COc2c(N3CCN(C)CC3)c(F)cc3c(=O)c(C(=O)O)cn1c23` (centres unmarked) [Ofloxacin], for which the MIC in the assay on E. coli CFT073 (UPEC) (setting [2]) was found to be 0.25 µM (≈ 0.0903 µg/mL). Moreover, the minimal inhibitory concentration (MIC) with S. aureus DSM2569 came to 2 µM (≈ 0.723 µg/mL). The “log10(CFU/ml) after treatment” value in the assay on non-growing UPEC CFT073 (concentration 0.25) was 9.204 log10(CFU/ml) and 8.602 log10(CFU/ml) and 8.778 log10(CFU/ml). Besides, the “log10(CFU/ml) after treatment” value in the assay with non-growing UPEC CFT073 (concentration 0.5) is 9.041 log10(CFU/ml) and 8.301 log10(CFU/ml) and 8.699 log10(CFU/ml). For the same molecule, the “log10(CFU/ml) after treatment” value with non-growing UPEC CFT073 (concentration 1) was 9.204 log10(CFU/ml) and 8.778 log10(CFU/ml) and 8.602 log10(CFU/ml). For the same molecule, the “log10(CFU/ml) after treatment” value in the assay on non-growing UPEC CFT073 (concentration 2.5) was 9.204 log10(CFU/ml) and 8.845 log10(CFU/ml) and 8.699 log10(CFU/ml). Further, the “log10(CFU/ml) after treatment” value with non-growing UPEC CFT073 (concentration 5) is 8.477 log10(CFU/ml) (2×) and 8.301 log10(CFU/ml). In the assay with non-growing UPEC CFT073 (concentration 10), the “log10(CFU/ml) after treatment” value was 8.544 log10(CFU/ml) and 8.230 log10(CFU/ml) and 8.176 log10(CFU/ml). For the same molecule, in assay [1], 113 nM corresponded to half-maximal inhibition (IC50); the “Fluorescence intensity (RFU), Mean, 0.25 x MIC” value is 9690.38 RFU; the “Fluorescence intensity (RFU), Mean, 0.5 x MIC” value is 8574.42 RFU; the “Fluorescence intensity (RFU), Mean, 2 x MIC” value worked out at 3677.86 RFU. In addition, in assay [1], the “Fluorescence intensity (RFU), Mean, 4 x MIC” value worked out at 3135.58 RFU; the “Fluorescence intensity (RFU), Mean, 8 x MIC” value was 2241.58 RFU; the “Fluorescence intensity (RFU), Mean, 16 x MIC” value was determined as 1713.97 RFU; the “Fluorescence intensity (RFU), Mean, 32 x MIC” value worked out at 1616.14 RFU. Besides, in assay [1], the “Fluorescence intensity (RFU), Mean, MIC” value stood at 4797.17 RFU.
For `Cc1oc(=O)oc1CN1CCN(c2cc3c(cc2F)c(=O)c(C(=O)O)c2n3C(C)S2)CC1` (centres unmarked) [Prulifloxacin], the minimum inhibitory concentration (MIC) with E. coli CFT073 (UPEC) (LPM pH 5.5, read-out: MIC) worked out at 0.125 µM (≈ 0.0577 µg/mL). Also, the MIC in the assay with E. coli CFT073 (UPEC) (setting [2]) came to 0.025 µM (≈ 0.0115 µg/mL). For the same molecule, the minimal inhibitory concentration (MIC) with S. aureus DSM2569 was found to be 4 µM (≈ 1.85 µg/mL). In the assay on non-growing UPEC CFT073 (concentration 1), the “log10(CFU/ml) after treatment” value was 9.041 log10(CFU/ml) (2×) and 8.398 log10(CFU/ml). Moreover, in the assay on non-growing UPEC CFT073 (concentration 2.5), the “log10(CFU/ml) after treatment” value is 8.845 log10(CFU/ml) and 8.230 log10(CFU/ml) and 7.903 log10(CFU/ml). Also, the “log10(CFU/ml) after treatment” value in the assay with non-growing UPEC CFT073 (concentration 5) is 8.477 log10(CFU/ml) and 7.699 log10(CFU/ml) and 7.176 log10(CFU/ml). Also, the “log10(CFU/ml) after treatment” value with non-growing UPEC CFT073 (concentration 10) was 7.903 log10(CFU/ml) and 7.176 log10(CFU/ml) (2×). For the same molecule, in the assay on non-growing UPEC CFT073 (drug concentration 0.25), the “killing, average Δlog10(CFU/ml)” value is listed as 0.155 log10(CFU/ml); the “log10(CFU/ml) of treated nongrowing bacteria (single replicates)” value was 9.322 log10(CFU/ml) and 8.845 log10(CFU/ml) and 8.301 log10(CFU/ml). In addition, in the assay on non-growing UPEC CFT073 (drug concentration 0.5), the “killing, average Δlog10(CFU/ml)” value was 0.462 log10(CFU/ml); the “log10(CFU/ml) of treated nongrowing bacteria (single replicates)” value is 8.903 log10(CFU/ml) and 8.301 log10(CFU/ml) and 8.342 log10(CFU/ml). Also, the “MIC:IC50 ratio” value in assay [1] (S. flexneri MIC in TSB versus intracellular IC50) was “below 0.5”. Further, in assay [1], the half-inhibitory concentration (IC50) was 147 nM; the “Fluorescence intensity (RFU), Mean, 2 x MIC” value stood at 8759.64 RFU; the “Fluorescence intensity (RFU), Mean, 4 x MIC” value was 6976.67 RFU; the “Fluorescence intensity (RFU), Mean, 8 x MIC” value is 4116.28 RFU. Besides, in assay [1], the “Fluorescence intensity (RFU), Mean, 16 x MIC” value turned out to be 3279.44 RFU; the “Fluorescence intensity (RFU), Mean, 32 x MIC” value was 2886.92 RFU; the “Fluorescence intensity (RFU), Mean, MIC” value is 8494.31 RFU.
